Measurements as given in patent US5972953A, “Brain cell protective agent” (priority 1993, dated 1999).

The compounds below were run on cultured nerve cells (cerebral cortex) (assay: cells). Conditions: Rattus norvegicus, Cerebral cortex neuron, 24 h, read-out: ED50.
Type: cell-based, Wistar rat
With `O=C(/C=C/c1cccc(C(F)(F)F)c1)N(CC1CCCCC1)[C@@H]1CC[C@@]2(O)[C@H]3Cc4ccc(O)c5c4[C@@]2(CCN3CC2CC2)[C@H]1O5` [Compound 68, 17-cyclopropylmethyl-3,14β-dihydroxy-4,5α-epoxy-6β-(N-cyclohexylmethyl-3-trifluoromethylcinnamamido)morphinan] the EC50 was 0.1 µM.
`Cc1cccc(/C=C/C(=O)N(CC(C)C)[C@@H]2CC[C@@]3(O)[C@H]4Cc5ccc(O)c6c5[C@@]3(CCN4CC3CC3)[C@H]2O6)c1` [Compound 57, 17-cyclopropylmethyl-3,14β-dihydroxy-4,5α-epoxy-6β-(N-isobutyl-3-methylcinnamamido)morphinan] was tested, and the EC50 was 0.66 µM.
With `CN(C(=O)/C=C/c1cccc(F)c1)[C@@H]1CC[C@@]2(O)[C@H]3Cc4ccc(O)c5c4[C@@]2(CCN3CC2CC2)[C@H]1O5` [Compound 79, 17-cyclopropylmethyl-3,14β-dihydroxy-4,5α-epoxy-6β-(N-methyl-3-fluorocinnamamido)morphinan] the EC50 was 12.2 µM.

Same assay, conditions: Rattus norvegicus, Cerebral cortex neuron; 10 mM glutamate, 24 hours at 37° C., LDH leakage; read-out: ED50 (the source's name)
`CC(C)CN(C(=O)CCCCC(=O)c1ccccc1)[C@@H]1CC[C@@]2(O)[C@H]3Cc4ccc(O)c5c4[C@@]2(CCN3CC2CC2)[C@H]1O5` [Compound 61, 17-cyclopropylmethyl-3,14β-dihydroxy-4,5α-epoxy-6β-(N-isobutyl-5-benzoylpentanoamido)morphinan] was tested, and the EC50 was 2.22 µM.
In the case of `CN(C(=O)/C=C/c1ccccc1C(F)(F)F)[C@@H]1CC[C@@]2(O)[C@H]3Cc4ccc(O)c5c4[C@@]2(CCN3CC2CC2)[C@H]1O5` [Compound 55, 17-cyclopropylmethyl-3,14β-dihydroxy-4,5α-epoxy-6β-(N-methyl-2-trifluoromethylcinnamamido)morphinan], the EC50 is reported as 1.73 µM.
`CN(C(=O)Cc1cccc(Cl)c1)[C@@H]1CC[C@@]2(O)[C@H]3Cc4ccc(O)c5c4[C@@]2(CCN3CC2CC2)[C@H]1O5` [Compound 85, 17-cyclopropylmethyl-3,14β-dihydroxy-4,5α-epoxy-6β-(N-methyl-3-chlorophenylacetoamido) morphinan] showed an EC50 of 4.22 µM.
With `CN(C(=O)Cc1ccc2ccccc2c1)[C@@H]1CC[C@@]2(O)[C@H]3Cc4ccc(O)c5c4[C@@]2(CCN3CC2CC2)[C@H]1O5` [Compound 83, 17-cyclopropylmethyl-3,14β-dihydroxy-4,5α-epoxy-6β-(N-methyl-2-naphthylacetoamido)morphinan] the EC50 was 4.69 µM.
`CN(C(=O)Nc1ccc(Cl)c(Cl)c1)[C@H]1CC[C@@]2(O)[C@H]3Cc4ccc(O)c5c4[C@@]2(CCN3CC2CC2)[C@H]1O5` [Compound 103, 17-Cyclopropylmethyl-3,14β-dihydroxy-4,5α-epoxy-6α-[N-methyl-N'-(3,4-dichlorophenyl)ureido]morphinan] gave an EC50 of 0.54 µM.
`Oc1ccc2c3c1O[C@H]1[C@H](N(CCCCc4ccccc4)Cc4ccccc4)CC[C@@]4(O)[C@@H](C2)N(CC2CC2)CC[C@]314` [Compound 13, 17-cyclopropylmethyl-3,14β-dihydroxy-4,5α-epoxy-6β-(N-4-phenylbutylbenzylamino) morphinan] showed an EC50 of 0.21 µM.
`CN(C(=O)C#Cc1cccc(C(F)(F)F)c1)[C@@H]1CC[C@@]2(O)[C@H]3Cc4ccc(O)c5c4[C@@]2(CCN3CC2CC2)[C@H]1O5` [Compound 90, 17-Cyclopropylmethyl-3,14β-dihydroxy-4,5α-epoxy-6β-[N-methyl-3-(3-trifluoromethylphenyl)propiolamido]morphinan] was tested, and the EC50 was 4.37 µM.
Compound `CC(C)CN(C(=O)CCCCC1CCCCC1)[C@@H]1CC[C@@]2(O)[C@H]3Cc4ccc(O)c5c4[C@@]2(CCN3CC2CC2)[C@H]1O5` [Compound 62, 17-cyclopropylmethyl-3,14β-dihydroxy-4,5α-epoxy-6β-(N-isobutyl-5-cyclohexylpentanoamido)morphinan] has an EC50 of 0.14 µM.
Compound `O=C(CCCCCc1ccccc1)N(CCCc1ccccc1)[C@@H]1CC[C@@]2(O)[C@H]3Cc4ccc(O)c5c4[C@@]2(CCN3CC2CC2)[C@H]1O5` [Compound 72, 17-cyclopropylmethyl-3,14β-dihydroxy-4,5α-epoxy-6β-[N-(3-phenylpropyl)-6-phenylhexanoamido)morphinan] has an EC50 of 0.11 µM.
For `O=C(/C=C/c1cccc(C(F)(F)F)c1)N(CCCc1ccccc1)[C@@H]1CC[C@@]2(O)[C@H]3Cc4ccc(O)c5c4[C@@]2(CCN3CC2CC2)[C@H]1O5` [Compound 69, 17-cyclopropylmethyl-3,14β-dihydroxy-4,5α-epoxy-6β-[N-(3-phenylpropyl)-3-trifluoromethylcinnamamido]-morphinan], the EC50 was 0.16 µM.
Work on `CC(C)CN(CCCCCCc1ccccc1)[C@@H]1CC[C@@]2(O)[C@H]3Cc4ccc(O)c5c4[C@@]2(CCN3CC2CC2)[C@H]1O5` [Compound 98, 17-cyclopropylmethyl-3,14β-dihydroxy-4,5α-epoxy-6β-(N-isobutyl-6-phenylhexylamino)morphinan] yielded an EC50 of 0.16 µM.
`Oc1ccc2c3c1O[C@H]1[C@H](N(Cc4ccccc4)CC(c4ccccc4)c4ccccc4)CC[C@@]4(O)[C@@H](C2)N(CC2CC2)CC[C@]314` [Compound 14, 17-cyclopropylmethyl-3,14β-dihydroxy-4,5α-epoxy-6β-[N-(2,2-diphenylethyl)benzylamino)morphinan] was tested, and the EC50 was 0.11 µM.
In the case of `CC(C)CN(CCCCCCc1ccccc1)[C@H]1CC[C@@]2(O)[C@H]3Cc4ccc(O)c5c4[C@@]2(CCN3CC2CC2)[C@H]1O5` [Compound 97, 17-cyclopropylmethyl-3,14β-dihydroxy-4,5α-epoxy-6α-(N-isobutyl-6-phenylhexylamino)morphinan], the EC50 is reported as 0.16 µM.
For `CN(C(=O)/C=C/c1ccc(C(F)(F)F)cc1)[C@@H]1CC[C@@]2(O)[C@H]3Cc4ccc(O)c5c4[C@@]2(CCN3CC2CC2)[C@H]1O5` [Compound 56, 17-cyclopropylmethyl-3,14β-dihydroxy-4,5α-epoxy-6β-(N-methyl-4-trifluoromethylcinnamamido)morphinan], the EC50 was 1.08 µM.
Work on `CC(C)CN(C(=O)CCCCCCCCCCc1ccccc1)[C@@H]1CC[C@@]2(O)[C@H]3Cc4ccc(O)c5c4[C@@]2(CCN3CC2CC2)[C@H]1O5` [Compound 60, 17-cyclopropylmethyl-3,14β-dihydroxy-4,5α-epoxy-6β-(N-isobutyl-11-phenylundecanoamido)morphinan] yielded an EC50 of 0.09 µM.
With `CN(C(=O)CCC1CCCC1)[C@@H]1CC[C@@]2(O)[C@H]3Cc4ccc(O)c5c4[C@@]2(CCN3CC2CC2)[C@H]1O5` [Compound 51, 17-cyclopropylmethyl-3,14β-dihydroxy-4,5α-epoxy-6β-(N-methyl-3-cyclopentylpropioamido)morphinan] the EC50 was 13.6 µM.
`CN(C(=O)CC(=O)c1ccccc1)[C@@H]1CC[C@@]2(O)[C@H]3Cc4ccc(O)c5c4[C@@]2(CCN3CC2CC2)[C@H]1O5` [Compound 80, 17-cyclopropylmethyl-3,14β-dihydroxy-4,5α-epoxy-6β-(N-methylbenzoylacetoamido) morphinan] gave an EC50 of 7.39 µM.
Work on `CN(C(=O)c1ccccc1)[C@@H]1CC[C@@]2(O)[C@H]3Cc4ccc(O)c5c4[C@@]2(CCN3CC2CC2)[C@H]1O5` [Compound 45, 17-cyclopropylmethyl-3,14β-dihydroxy-4,5α-epoxy-6β-(N-methylbenzamido)morphinan] yielded an EC50 of 3.72 µM.
`CC(=O)O[C@@]12CC[C@@H](N(C)C(=O)/C=C/c3ccccc3)[C@@H]3Oc4c(O)ccc5c4[C@@]31CCN(CC1CC1)[C@@H]2C5` [Compound 115, 17-cyclopropylmethyl-3-hydroxy-14β-acetoxy-4,5α-epoxy-6β-(N-methylcinnamamido)morphinan] was tested, and the EC50 was 5.41 µM.
In the case of `CN(C(=O)Cc1csc2ccccc12)[C@@H]1CC[C@@]2(O)[C@H]3Cc4ccc(O)c5c4[C@@]2(CCN3CC2CC2)[C@H]1O5` [Compound 87, 17-cyclopropylmethyl-3,14β-dihydroxy-4,5α-epoxy-6β-(N-methyl-3-benzo[b]thienylacetoamrido)morphinan], the EC50 is reported as 2.15 µM.
`COCCOC(=O)N(C)[C@H]1CC[C@@]2(O)[C@H]3Cc4ccc(O)c5c4[C@@]2(CCN3CC2CC2)[C@H]1O5` [Compound 100, 17-cyclopropylmethyl-3,14β-dihydroxy-4,5α-epoxy-6α-(N-methyl-2-methoxyethoxycarbamido)morphinan] was tested, and the EC50 was 38.8 µM.
`CN([C@H]1CC[C@@]2(O)[C@H]3Cc4ccc(O)c5c4[C@@]2(CCN3CC2CC2)[C@H]1O5)S(=O)(=O)Cc1ccc(Cl)c(Cl)c1` [Compound 111, 17-cyclopropylmethyl-3,14β-dihydroxy-4,5α-epoxy-6α-(N-methyl-3,4-dichlorophenylmethanesulfonamido) morphinan] gave an EC50 of 0.54 µM.
`CN(C(=O)Cc1cccc2ccccc12)[C@@H]1CC[C@@]2(O)[C@H]3Cc4ccc(O)c5c4[C@@]2(CCN3CC2CC2)[C@H]1O5` [Compound 86, 17-cyclopropylmethyl-3,14β-dihydroxy-4,5α-epoxy-6β-(N-methyl-1-naphthylacetoamido)morphinan] showed an EC50 of 7.36 µM.
`CN(C(=O)C1c2ccccc2-c2ccccc21)[C@@H]1CC[C@@]2(O)[C@H]3Cc4ccc(O)c5c4[C@@]2(CCN3CC2CC2)[C@H]1O5` [Compound 88, 17-cyclopropylmethyl-3,14β-dihydroxy-4,5α-epoxy-6β-(N-methyl-9-fluorenylamido) morphinan] gave an EC50 of 4.64 µM.
With `O=C(CCCCCc1ccccc1)N(CCCCc1ccccc1)[C@@H]1CC[C@@]2(O)[C@H]3Cc4ccc(O)c5c4[C@@]2(CCN3CC2CC2)[C@H]1O5` [Compound 73, 17-cyclopropylmethyl-3,14β-dihydroxy-4,5α-epoxy-6β-[N-(4-phenylbutyl)-6-phenylhexanoamido)morphinan] the EC50 was 0.14 µM.
With `O=C(CCCCCc1ccccc1)N(CC1CCCCC1)[C@@H]1CC[C@@]2(O)[C@H]3Cc4ccc(O)c5c4[C@@]2(CCN3CC2CC2)[C@H]1O5` [Compound 71, 17-cyclopropylmethyl-3,14β-dihydroxy-4,5α-epoxy-6β-(N-cyclohexylmethyl-6-phenylhexanoamido)morphinan] the EC50 was 0.1 µM.
`CCN(Cc1ccccc1)[C@@H]1CC[C@@]2(O)[C@H]3Cc4ccc(O)c5c4[C@@]2(CCN3CC2CC2)[C@H]1O5` [Compound 5, 17-cyclopropylmethyl-3,14β-dihydroxy-4,5α-epoxy-6β-(N-ethylbenzylamino)morphinan] showed an EC50 of 24.6 µM.
Compound `Oc1ccc2c3c1O[C@H]1[C@H](N(CCCc4ccccc4)Cc4ccccc4)CC[C@@]4(O)[C@@H](C2)N(CC2CC2)CC[C@]314` [Compound 12, 17-cyclopropylmethyl-3,14β-dihydroxy-4,5α-epoxy-6β-(N-3-phenylpropylbenzylamino) morphinan] has an EC50 of 0.13 µM.
